ChEMBL document CHEMBL4825704, “Withanolide Derivative 2,3-Dihydro-3β-methoxy Withaferin-A Modulates the Circadian Clock via Interaction with RAR-Related Orphan Receptor α (RORa)” (J Nat Prod, 2021)
Activity calls are given as the source filed them. No cut-off for these calls is given here.

Key:
[1] = molecular target: T1, Nuclear receptor ROR-alpha (Mus musculus) (UniProt P51448); test: Agonist activity at RORalpha in mouse NIH3T3 cells at 1 to 1000 uM incubated for 24 hrs by luminescence based assay; type: cell-based; settings: dose 1-1000 µM
T1 sequence (whole entry): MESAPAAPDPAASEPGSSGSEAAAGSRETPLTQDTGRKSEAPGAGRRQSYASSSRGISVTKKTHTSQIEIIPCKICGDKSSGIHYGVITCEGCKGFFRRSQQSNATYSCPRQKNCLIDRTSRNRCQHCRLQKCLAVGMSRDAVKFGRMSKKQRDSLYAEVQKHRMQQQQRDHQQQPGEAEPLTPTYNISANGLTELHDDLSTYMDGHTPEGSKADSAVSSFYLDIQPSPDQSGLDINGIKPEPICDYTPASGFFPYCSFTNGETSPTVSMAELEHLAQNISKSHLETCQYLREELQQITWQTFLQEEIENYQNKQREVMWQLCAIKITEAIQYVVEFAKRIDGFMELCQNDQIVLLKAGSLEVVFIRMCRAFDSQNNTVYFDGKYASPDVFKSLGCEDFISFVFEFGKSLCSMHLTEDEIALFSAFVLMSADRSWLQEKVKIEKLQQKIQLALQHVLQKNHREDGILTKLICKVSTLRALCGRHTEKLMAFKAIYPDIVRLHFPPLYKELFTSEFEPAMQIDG

Sarcoma-180 [2] = test: Cytotoxicity against mouse Sarcoma-180 cells assessed as reduction in cell proliferation by measuring growth rate at 1 uM measured after 3 days by WST-8 assay relative to control; type: functional
Sarcoma-180 [3] = test: (§1) Elongation of circadian rhythms in dexamethasone-induced mouse Sarcoma-180 cells assessed as increase in Bmal1 period time at 5 uM measured for 1 mins at 10 min interval up to 96 hrs by bioluminescence based Bmal1 promoter-reporter gene assay (reference value: 25.70 +/- 0.30 hrs); type: functional; settings: time hrs <=96
Sarcoma-180 [4] = test: Cytotoxicity against mouse Sarcoma-180 cells assessed as reduction in cell proliferation at 1 uM measured up to 5 days by WST-8 assay; type: functional, cell-based; settings: time day <=5
MEF [5] = test: as §1, with “embryonic fibroblasts expressing PER2-luc gene” for “Sarcoma-180 cells”, “PER2” for “Bmal1”, “25” for “5”, “23.17” for “25.70”, “0.10” for “0.30”; type: functional; settings: time hrs <=96
MEF [6] = test: as §1, with “embryonic fibroblasts expressing PER2-luc gene” for “Sarcoma-180 cells”, “PER2” for “Bmal1”, “1.67” for “5”, “23.17” for “25.70”, “0.10” for “0.30”; type: functional; settings: time hrs <=96
[7] = Induction of Bmal1 promotor activity in dexamethasone-induced mouse NIH3T3 cells transfected with Bmal1 promotor-reporter plasmids at 15 uM measured after 24 hrs by bioluminescence assay relative to control; type: functional
NIH3T3 [8] = test: Transcriptional upregulation of Bmal1 mRNA expression in dexamethasone-induced mouse NIH3T3 cells at 5 uM measured after 24 hrs by RT-qPCR analysis relative to control; type: functional
MEF [9] = test: as §1, with “embryonic fibroblasts expressing PER2-luc gene” for “Sarcoma-180 cells”, “PER2” for “Bmal1”, “23.17” for “25.70”, “0.10” for “0.30”; type: functional; settings: time hrs <=96
[10] = Induction of Bmal1 promotor activity in dexamethasone-induced mouse NIH3T3 cells transfected with Bmal1 promotor-reporter plasmids at 5 uM measured after 24 hrs by bioluminescence assay relative to control; type: functional
NIH3T3 [11] = test: Elongation of circadian rhythms in dexamethasone-induced mouse NIH3T3 cells assessed as increase in Bmal1 period time at 5 uM measured for 1 mins at 10 min interval up to 96 hrs by dual luciferase reporter gene assay (reference value: 25.02 +/- 0.15 hrs); type: functional; settings: time hrs <=96
Sarcoma-180 [12] = test: Elongation of circadian rhythms in dexamethasone-induced mouse Sarcoma-180 cells assessed as increase in Bmal1 period length at 1 to 5 uM measured for 1 mins at 10 min interval up to 96 hrs by bioluminescence based Bmal1 promoter-reporter gene assay; type: functional, cell-based; settings: dose 1-5 µM, time hrs <=96
NIH3T3 [13] = test: Transcriptional upregulation of […] mRNA expression in dexamethasone-induced mouse NIH3T3 cells at 15 uM measured after 24 hrs by qPCR analysis relative to control; type: functional
NIH3T3 [14] = test: Transcriptional upregulation of Rora mRNA expression in dexamethasone-induced mouse NIH3T3 cells at 5 uM measured after 24 hrs by qPCR analysis relative to control; type: functional
Sarcoma-180 [15] = test: Elongation of circadian rhythms in dexamethasone-induced mouse Sarcoma-180 cells assessed as increase in Bmal1 period length measured for 1 mins at 10 min interval up to 96 hrs by bioluminescence based Bmal1 promoter-reporter gene assay; type: functional, cell-based; settings: dose 1-5 µM, time hrs <=96
NIH3T3 [16] = test: Transcriptional upregulation of […] mRNA expression in dexamethasone-induced mouse NIH3T3 cells at 5 uM measured after 24 hrs by qPCR analysis relative to control; type: functional
NIH3T3 [17] = test: Transcriptional upregulation of Rora mRNA expression in dexamethasone-induced mouse NIH3T3 cells at 15 uM measured after 24 hrs by qPCR analysis relative to control; type: functional
MEF [18] = test: as §1, with “embryonic fibroblasts expressing PER2-luc gene” for “Sarcoma-180 cells”, “PER2” for “Bmal1”, “1” for “5”, “23.17” for “25.70”, “0.10” for “0.30”; type: functional; settings: time hrs <=96
Sarcoma-180 [19] = test: Transcriptional upregulation of Bmal1 mRNA expression in dexamethasone-induced mouse Sarcoma-180 cells at 5 uM measured after 24 hrs by RT-qPCR analysis relative to control; type: functional
NIH3T3 [20] = test: Transcriptional upregulation of Bmal1 mRNA expression in dexamethasone-induced mouse NIH3T3 cells at 1 uM measured after 24 hrs by RT-qPCR analysis relative to control; type: functional
Sarcoma-180 [21] = test: Transcriptional upregulation of Bmal1 mRNA expression in dexamethasone-induced mouse Sarcoma-180 cells at 1 uM measured after 24 hrs by RT-qPCR analysis relative to control; type: functional
[22] = molecular target: T2, Nuclear receptor ROR-alpha (Mus musculus, UniProt P51448); test: Inverse agonist activity at RORalpha in mouse NIH3T3 cells incubated for 24 hrs by luminescence based assay; type: cell-based
T2 sequence (P51448 whole entry): T1 sequence (whole entry)

Sarcoma-180 [23] = test: Cytotoxicity against mouse Sarcoma-180 cells assessed as reduction in cell proliferation at 5 uM measured up to 5 days by WST-8 assay; type: functional, cell-based; settings: time day <=5
NIH3T3 [24] = test: Elongation of circadian rhythms in dexamethasone-induced mouse NIH3T3 cells assessed as increase in Bmal1 period time at 1 uM measured for 1 mins at 10 min interval up to 96 hrs by dual luciferase reporter gene assay (reference value: 25.02 +/- 0.15 hrs); type: functional; settings: time hrs <=96

CC1=C(CO)C(=O)O[C@@H]([C@@H](C)[C@H]2CC[C@H]3[C@@H]4C[C@H]5O[C@]56[C@@H](O)C=CC(=O)[C@]6(C)[C@H]4CC[C@]23C)C1
Activity [1]: inactive | Activity (Sarcoma-180 [2]; time 3.0 day): Active | Activity (Sarcoma-180 [3]): Active | Activity (Sarcoma-180 [4]): Active

CO[C@H]1CC(=O)[C@]2(C)[C@H]3CC[C@]4(C)[C@@H]([C@H](C)[C@H]5CC(C)=C(CO)C(=O)O5)CC[C@H]4[C@@H]3C[C@H]3O[C@]32[C@H]1O
Time (MEF [5]): 26.11 h | Time (MEF [6]): 24.17 h | fold change (FC) [7]: 1.83 | Activity (NIH3T3 [8]): 1.75 fold change | Time (MEF [9]): 25.36 h | Activity (Sarcoma-180 [2]; time 3 day): 59.8% | fold change (FC) [10]: 1.32 | Time (NIH3T3 [11]): 26.06 h | Activity (Sarcoma-180 [12]): Active | fold change (FC) (NIH3T3 [13]): 1.57 | fold change (FC) (NIH3T3 [14]): 1.61 | Activity (Sarcoma-180 [15]): Dose-Dependent Effect | fold change (FC) (NIH3T3 [16]): 1.2 | fold change (FC) (NIH3T3 [17]): 1.68 | Time (Sarcoma-180 [3]): 31.7 h | Time (MEF [18]): 22.98 h | fold change (FC) (Sarcoma-180 [19]): 2.13 | Activity (NIH3T3 [20]): 1.43 fold change | fold change (FC) (Sarcoma-180 [21]): 1.34 | IC50 [22]: 11.3 µM | Activity (Sarcoma-180 [23]): Active | Time (NIH3T3 [24]): 25.01 h | Activity (Sarcoma-180 [4]): Active

CC(C)CCC[C@@H](C)[C@H]1CC[C@H]2C3=CC=C4C[C@@H](O)CC[C@]4(C)[C@H]3CC[C@]12C
Activity ([1]; filed as agonist): Active
